One may read the IC50 as the midpoint of a concentration-inhibition curve. Low values mean greater potency, high ones weaker potency. Broadly, the Emax is the greatest response seen or fitted, relative to the assay's reference.

Sequence of human OX2R (O43614 whole entry): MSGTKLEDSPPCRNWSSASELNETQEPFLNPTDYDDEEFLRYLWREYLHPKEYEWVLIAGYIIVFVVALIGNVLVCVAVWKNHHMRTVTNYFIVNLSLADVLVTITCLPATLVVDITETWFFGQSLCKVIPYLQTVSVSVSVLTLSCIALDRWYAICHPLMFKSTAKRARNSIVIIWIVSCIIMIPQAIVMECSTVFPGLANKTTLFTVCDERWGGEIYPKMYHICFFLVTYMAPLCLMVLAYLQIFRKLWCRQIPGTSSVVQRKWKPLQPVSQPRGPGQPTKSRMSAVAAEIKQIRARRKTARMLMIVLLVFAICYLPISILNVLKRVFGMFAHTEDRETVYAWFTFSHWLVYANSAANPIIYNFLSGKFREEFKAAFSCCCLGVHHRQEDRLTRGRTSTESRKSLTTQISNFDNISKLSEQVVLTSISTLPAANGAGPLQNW

The first assay has as its target human OX2R (Homo sapiens (Human), UniProt O43614). Put plainly: IPOne (IP-One, Cisbio) orexin receptor agonist assay in CHO cells expressing human OX2R.
Settings: not given
As for `COC(=O)N1[C@H](CC#N)C[C@H](NS(=O)(=O)N(C)C)[C@@H]1CO[C@H]1CC[C@@H](c2cccc(F)c2)CC1` [Example 52, methyl (2R,3S,5S)-5-(cyanomethyl)-3-((N,N-dimethylsulfamoyl)amino)-2-((((CIS)-4-(3-fluorophenyl)cyclohexyl)oxy)methyl)pyrrolidine-1-carboxylate], the concentration for half-maximal inhibition (IC50) worked out at 7.8 nM.

The same assay, now with this note: CHO, hOX2R_IP; percentage of mean max effect of a reference compound at 1 uM (100% activity vs Orexin A).
`COC(=O)N1[C@H](CC#N)C[C@H](NS(=O)(=O)N(C)C)[C@@H]1CO[C@H]1CC[C@@H](c2cccc(F)c2)CC1` [Example 52, methyl (2R,3S,5S)-5-(cyanomethyl)-3-((N,N-dimethylsulfamoyl)amino)-2-((((CIS)-4-(3-fluorophenyl)cyclohexyl)oxy)methyl)pyrrolidine-1-carboxylate] registered an Emax of 102%.

`COCCS(=O)(=O)N[C@H]1C[C@@H](C)N(C(=O)OC)[C@H]1COC1CCC(c2cccc(F)c2)CC1` (stereo partly shown) [Example 61] had a maximal effect (Emax) of 105%.

Turning to `COC(=O)N1[C@H](C)C[C@H](NS(=O)(=O)CF)[C@@H]1COC1CCC(c2cccc(F)c2)CC1` (stereo partly drawn) [Example 62, methyl (2R,3S,5R)-3-((fluoromethyl)sulfona-mido)-2-((((1s,4S)-4-(3-fluorophenyl)cyclohex-yl)oxy)methyl)-5-methylpyrrolidine-1-carboxylate], the Emax is 98%.

Molecule `CCc1ccccc1[C@H]1CC[C@@H](OC[C@H]2[C@@H](NS(=O)(=O)N(C)C)C[C@@H](C)N2C(=O)OC)CC1` [Example 65, Methyl (2R,3S,5R)-3-((N,N-dimethylsulfamoyl)amino)-2-((((1s,4S)-4-(2-ethylphenyl)cyclohexyl)oxy)methyl)-5-methylpyrrolidine-1-carboxylate] had an Emax of 101%.

Consider `CCc1ccccc1[C@H]1CC[C@H](OC[C@H]2[C@@H](NS(=O)(=O)N(C)C)C[C@@H](C)N2C(=O)OC)CC1` [Example 66, methyl (2R,3S,5R)-3-((N,N-dimethylsulfamoyl)amino)-2-((((1r,4R)-4-(2-ethylphenyl)cyclohexyl)oxy)methyl)-5-methylpyrrolidine-1-carboxylate], for which the Emax is 100%.

Consider `COC(=O)N1[C@H](C)C[C@H](NS(C)(=O)=O)[C@@H]1CO[C@H]1CC[C@@H](c2ccc(F)c(F)c2)CC1` [Example 73, Methyl (2R,3S,5R)-2-((((1s,4S)-4-(3,4-difluorophenyl)cyclohexyl)oxy)methyl)-5-methyl-3-(methylsulfonamido)pyrrolidine-1-carboxylate], for which the Emax worked out at 101%.

Still in this assay, the particulars now being: hOX2R_IP; percentage of mean max effect of a reference compound at 1 uM (100% activity vs Orexin A).
For the molecule `COC(=O)N1[C@H](C)C[C@H](NS(=O)(=O)N(C)CC#N)[C@@H]1CO[C@H]1CC[C@@H](c2cccc(F)c2)CC1` [Example 53, Methyl (2R,3S,5R)-3-((N-(cyanomethyl)-N-methylsulfamoyl)amino)-2-((((1s,4S)-4-(3-fluorophenyl)cyclohexyl)oxy)methyl)-5-methylpyrrolidine-1-carboxylate], the “Emax (%)” value stood at 102%.

Take `COC(=O)N1[C@H](C)C[C@H](NS(=O)(=O)N(C)CCC#N)[C@@H]1CO[C@H]1CC[C@@H](c2cccc(F)c2)CC1` [Example 54, methyl (2R,3S,5R)-3-((N-(2-cyanoethyl)-N-methylsulfamoyl)amino)-2-((((1s,4S)-4-(3-fluorophenyl)cyclohex-yl)oxy)methyl)-5-methylpyrrolidine-1-carboxylate]: the “Emax (%)” value was found to be 98%.

With `COCCN(C)S(=O)(=O)N[C@H]1C[C@@H](C)N(C(=O)OC)[C@H]1CO[C@H]1CC[C@@H](c2cccc(F)c2)CC1` [Example 55, methyl (2R,3S,5R)-2-((((1s,4S)-4-(3-fluorophenyl)cyclohex-yl)oxy)methyl)-3-((N-(2-methoxyethyl)-N-methylsulfamoyl)amino)-5-methylpyrrolidine-1-carboxylate], the “Emax (%)” value came out at 100%.

`COC(=O)N1[C@H](C)C[C@H](NS(=O)(=O)N(C)CCO)[C@@H]1CO[C@H]1CC[C@@H](c2cccc(F)c2)CC1` [Example 56, methyl (2R,3S,5R)-2-((((1s,4S)-4-(3-fluorophenyl)cyclohex-yl)oxy)methyl)-3-((N-(2-hydroxyethyl)-N-methylsulfamoyl)amino)-5-methylpyrrolidine-1-carboxylate]: the “Emax (%)” value was found to be 101%.

Turning to `COC(=O)N1[C@H](C)C[C@H](NS(=O)(=O)N(C)CCS(C)(=O)=O)[C@@H]1COC1CCC(c2cccc(F)c2)CC1` (stereo partly drawn) [Example 57, methyl (2R,3S,5R)-2-((((1s,4S)-4-(3-fluorophenyl)cyclohex-yl)oxy)methyl)-5-methyl-3-((N-methyl-N-(2-(methyslulfonyl)-ethyl)sulfamoyl)amino) pyrrolidine-1-carboxylate], the “Emax (%)” value is on record as 100%.

On to `COC(=O)N1[C@H](C)C[C@H](NS(=O)(=O)N(C)CC2CS(=O)(=O)C2)[C@@H]1CO[C@H]1CC[C@@H](c2cccc(F)c2)CC1` [Example 58, methyl (2R,3S,5R)-3-((N-((1,1-dioxidothietan-3-yl)methyl)-N-methylsulfamoyl)amino)-2-((((1s,4S)-4-(3-fluorophenyl)cyclohex-yl)oxy)methyl)-5-methylpyrrolidine-1-carboxylate], for which the “Emax (%)” value is reported as 101%.

Consider `COC(=O)N1[C@H](C)C[C@H](NS(=O)(=O)N(C)CCOC(F)(F)F)[C@@H]1CO[C@H]1CC[C@@H](c2cccc(F)c2)CC1` [Example 59, methyl (2R,3S,5R)-2-((((1s,4S)-4-(3-fluorophenyl)cyclohex-yl)oxy)methyl)-5-methyl-3-((N-methyl-N-(2-(trifluoromethoxy)ethyl)sulfamoyl)amino)pyrro-lidine-1-carboxylate], for which the “Emax (%)” value worked out at 99%.

With `COC(=O)N1[C@H](C)C[C@H](NS(=O)(=O)CC(F)F)[C@@H]1CO[C@H]1CC[C@@H](c2cccc(F)c2)CC1` [Example 60, Methyl (2R,3S,5R)-3-((2,2-difluoroethyl)sulfonamido)-2-((((1s,4S)-4-(3-fluorophenyl)-cyclohexyl)oxy)methyl)-5-methylpyrrolidine-1-carboxylate], the “Emax (%)” value came to 99%.

As to `COC(=O)N1[C@H](C)C[C@H](NS(=O)(=O)N(C)C)[C@@H]1CO[C@H]1CC[C@@H](c2ccc(C#N)c(C)c2)CC1` [Example 63, Methyl (2R,3S,5R)-2-((((1s,4S)-4-(4-cyano-3-methylphenyl)cyclohexyl)oxy)methyl)-3-((N,N-dimethylsulfamoyl)amino)-5-methylpyrrolidine-1-carboxylate], the “Emax (%)” value is reported as 100%.

For `COC(=O)N1[C@H](C)C[C@H](NS(=O)(=O)N(C)C)[C@@H]1CO[C@H]1CC[C@H](c2ccc(C#N)c(C)c2)CC1` [Example 64, Methyl (2R,3S,5R)-2-((((1r,4R)-4-(4-cyano-3-methylphenyl)cyclohexyl)oxy)methyl)-3-((N,N-dimethylsulfamoyl)amino)-5-methylpyrrolidine-1-carboxylate], the “Emax (%)” value was determined as 99%.

Take `COC(=O)N1[C@H](C)C[C@H](NS(C)(=O)=O)[C@@H]1CO[C@H]1CC[C@H](c2ncccn2)CC1` [Example 69, Methyl (2R,3S,5R)-5-methyl-3-(methylsulfonamido)-2-((((1r,4R)-4-(pyrimidin-2-yl)cyclohexyl)oxy)methyl)pyrrolidine-1-carboxylate]: the “Emax (%)” value was 98%.

Regarding `COC(=O)N1[C@H](C)C[C@H](NS(C)(=O)=O)[C@@H]1CO[C@H]1CC[C@@H](c2ncccn2)CC1` [Example 70, Methyl (2R,3S,5R)-5-methyl-3-(methylsulfonamido)-2-((((1s,4S)-4-(pyrimidin-2-yl)cyclohexyl)oxy)methyl)pyrrolidine-1-carboxylate], the “Emax (%)” value was found to be 99%.

Turning to `COC(=O)N1[C@H](C)C[C@H](NS(C)(=O)=O)[C@@H]1CO[C@H]1CC[C@@H](c2cc(F)cc(F)c2)CC1` [Example 71, Methyl (2R,3S,5R)-2-((((1s,4S)-4-(3,5-difluorophenyl)cyclohexyl)oxy)methyl)-5-methyl-3-(methylsulfonamido)pyrrolidine-1-carboxylate], the “Emax (%)” value came to 102%.

`COC(=O)N1[C@H](C)C[C@H](NS(C)(=O)=O)[C@@H]1CO[C@H]1CC[C@H](c2cc(F)cc(F)c2)CC1` [Example 72, Methyl (2R,3S,5R)-2-((((1r,4R)-4-(3,5-difluorophenyl)cyclohexyl)oxy)methyl)-5-methyl-3-(methylsulfonamido)pyrrolidine-1-carboxylate]: the “Emax (%)” value came out at 100%.

For “methyl (CIS)-5-ethynyl-3-(methylsulfonamido)-2-((((CIS)-4-phenylcyclohexyl)oxy)methyl)-pyrrolidine-1-carboxylate [Example 47]”, the “Emax (%)” value stood at 101%.

Values taken from patent US11098029B2, “5-alkyl pyrrolidine orexin receptor agonists” (Merck Sharp & Dohme Corp., priority 2019, dated 2021).
